Experiment [1] concerns the target T1, purified recombinant human GAC (GLS1) (Homo sapiens, UniProt O94925).
T1 sequence (O94925 55-598 isoform O94925-3 limits assumed): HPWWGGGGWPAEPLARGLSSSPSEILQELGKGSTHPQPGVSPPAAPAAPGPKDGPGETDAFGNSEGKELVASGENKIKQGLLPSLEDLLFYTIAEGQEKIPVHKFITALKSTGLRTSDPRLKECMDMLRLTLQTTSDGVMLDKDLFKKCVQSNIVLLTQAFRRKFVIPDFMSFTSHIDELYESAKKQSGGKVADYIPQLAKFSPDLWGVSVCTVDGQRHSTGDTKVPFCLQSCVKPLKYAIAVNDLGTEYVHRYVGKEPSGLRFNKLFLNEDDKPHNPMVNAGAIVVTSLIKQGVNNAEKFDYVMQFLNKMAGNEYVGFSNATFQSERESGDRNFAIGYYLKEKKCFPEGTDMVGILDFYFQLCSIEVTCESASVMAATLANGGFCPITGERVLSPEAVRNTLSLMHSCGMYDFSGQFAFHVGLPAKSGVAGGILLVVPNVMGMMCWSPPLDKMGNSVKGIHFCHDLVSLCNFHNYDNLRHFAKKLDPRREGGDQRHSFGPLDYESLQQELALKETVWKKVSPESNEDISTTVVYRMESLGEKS
Kind of experiment: GLS1 Enzymatic Activity Assay (dual-coupled enzymatic assay). In kind it is biochemical. Put shortly:
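In this coupled fluorometric format, phosphate-activated GAC (2 nM, 50 mM phosphate) is pre-exposed to compound for 10 min before 1 mM glutamine addition. Product is tracked as resorufin (530/590 nm) over time or at 20 min, and potency is derived by logistic fitting.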

The subject of another experiment is A549 cells. Briefly: Proliferation Assay (A549 cell viability, Cell Titer Fluor). As to conditions: Homo sapiens, 72 hours. In kind it is cell-based. The procedure, abridged: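 A549 cells seeded at 1000 cells/well, left 24 h, then exposed to compound for 72 h at 37 °C, 5% CO2, final DMSO 0.5% (v/v). Viability read by Cell Titer Fluor fluorescence; EC50 from four-parameter logistic fit.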

Molecules are shown by their SMILES. Some results are limits rather than exact numbers.

A word on the IC50: it is the concentration that gives 50% inhibition. As usually defined, the EC50 is the concentration at which the effect is half-maximal. A lower EC50 goes with greater potency. As to `COc1ncccc1CNC(=O)c1cn(CCCCc2cc3cc(C4CC4)[nH]c3nn2)nn1` [Example 49, 1-(4-{6-cyclopropyl-7H-pyrrolo[2,3-c]pyridazin-3-yl}butyl)-N-[(2-methoxypyridin-3-yl)methyl]-1H-1,2,3-triazole-4-carboxamide], in experiment [1], the half-maximal inhibitory concentration (IC50) is 500 to 5000 nM. For the same compound, the 50% effective concentration (EC50) with A549 cells lay in the range of 500 to 5000 nM.

As to `N#Cc1cccc(Cc2c(C3CC3)[nH]c3nnc(CCCCn4cc(C(=O)NCc5ccccn5)nn4)cc23)c1` [Example 103, 1-(4-{5-[(3-cyanophenyl)methyl]-6-cyclopropyl-7H-pyrrolo[2,3-c]pyridazin-3-yl}butyl)-N-(pyridin-2-ylmethyl)-1H-1,2,3-triazole-4-carboxamide], the 50% inhibitory concentration (IC50) in experiment [1] was less than 100 nM. For the same compound, in the experiment on A549 cells, the concentration giving a half-maximal response (EC50) lay in the range of 500 to 5000 nM.

For `O=C(NCc1cc(OC(F)(F)F)ccc1F)c1cn(CCCCc2cc3cc(C4CN(C(=O)CC(F)(F)F)C4)[nH]c3nn2)nn1` [Example 141, N-{[2-fluoro-5-(trifluoromethoxy)phenyl]methyl}-1-(4-{6-[1-(3,3,3-trifluoropropanoyl)azetidin-3-yl]-7H-pyrrolo[2,3-c]pyridazin-3-yl}butyl)-1H-1,2,3-triazole-4-carboxamide], the IC50 in experiment [1] is less than 100 nM. This compound registered an EC50 in the experiment on A549 cells of 100 to 500 nM.

With `NS(=O)(=O)c1cccc(-c2c(C3CC3)[nH]c3nnc(CCCCn4cc(C(=O)NCc5cccc(OC(F)(F)F)c5)nn4)cc23)c1` [Example 181, 1-{4-[6-cyclopropyl-5-(3-sulfamoylphenyl)-7H-pyrrolo[2,3-c]pyridazin-3-yl]butyl}-N-{[3-(trifluoromethoxy)phenyl]methyl}-1H-1,2,3-triazole-4-carboxamide], in experiment [1], the half-inhibitory concentration (IC50) was less than 100 nM. The compound further yielded a concentration giving a half-maximal response (EC50) in the experiment with A549 cells of 500 to 5000 nM.

Regarding `O=C(NCc1ccccn1)c1cn(CCCCc2cc3cc(C4CC4)[nH]c3nn2)nn1` [Example 16, 1-(4-(6-cyclopropyl-7H-pyrrolo[2,3-c]pyridazin-3-yl)butyl)-N-(pyridin-2-ylmethyl)-1H-1,2,3-triazole-4-carboxamide], the IC50 in experiment [1] was 100 to 500 nM. The same compound gave an EC50 in the experiment on A549 cells of 100 to 500 nM.

On to `Cc1ccc(CNC(=O)c2cn(CCCCc3cc4c(CCc5ccccc5)c(C5CC5)[nH]c4nn3)nn2)cn1` [Example 100, 1-{4-[6-cyclopropyl-5-(2-phenylethyl)-7H-pyrrolo[2,3-c]pyridazin-3-yl]butyl}-N-[(6-methylpyridin-3-yl)methyl]-1H-1,2,3-triazole-4-carboxamide], for which the concentration for half-maximal inhibition (IC50) in experiment [1] is less than 100 nM. In addition, the EC50 in the experiment with A549 cells was 100 to 500 nM.

For the compound `Cc1ccc(CNC(=O)c2cn(CCCCc3cc4cc(C5CCNCC5)[nH]c4nn3)nn2)cn1` [Example 98, N-[(6-methylpyridin-3-yl)methyl]-1-{4-[6-(piperidin-4-yl)-7H-pyrrolo[2,3-c]pyridazin-3-yl]butyl}-1H-1,2,3-triazole-4-carboxamide], the half-maximal inhibitory concentration (IC50) in experiment [1] lay within 500 to 5000 nM. In the experiment on A549 cells, this compound came in with an EC50 greater than 5000 nM.

Consider `O=C(NCc1cc(OC(F)(F)F)ccc1F)c1cn(CCCCc2cc3c(-c4ccccn4)c(C4CC4)[nH]c3nn2)nn1` [Example 144, 1-{4-[6-cyclopropyl-5-(pyridin-2-yl)-7H-pyrolo[2,3-c]pyridazin-3-yl]butyl}-N-{[2-fluoro-5-(trifluoromethoxy)phenyl]methyl}-1H-1,2,3-triazole-4-carboxamide], for which the half-inhibitory concentration (IC50) in experiment [1] is less than 100 nM. Moreover, the EC50 in the experiment on A549 cells is less than 100 nM.

Turning to `CNC(=O)c1cn(CCCCc2cc3cc(-c4ccccc4F)[nH]c3nn2)nn1` [Example 240, 1-{4-[6-(2-fluorophenyl)-7H-pyrrolo[2,3-c]pyridazin-3-yl]butyl}-N-methyl-1H-1,2,3-triazole-4-carboxamide], the IC50 in experiment [1] lay in the range of 100 to 500 nM. This compound also came in with a half-maximal effective concentration (EC50) in the experiment with A549 cells of 100 to 500 nM.

As to `Cc1ccc(CNC(=O)c2cn(CCCCc3cc4cc(-c5ccccc5)[nH]c4nn3)nn2)cn1` [Example 209, N-[(6-methylpyridin-3-yl)methyl]-1-(4-{6-phenyl-7H-pyrrolo[2,3-c]pyridazin-3-yl}butyl)-1H-1,2,3-triazole-4-carboxamide], in experiment [1], the IC50 was less than 100 nM. The same compound gave an EC50 in the experiment with A549 cells of 100 to 500 nM.

As to `Cc1ccc(CNC(=O)c2cn(CCCCc3cc4c(-c5ccccc5F)c(C5CC5)[nH]c4nn3)nn2)cn1` [Example 122, 1-{4-[6-cyclopropyl-5-(2-fluorophenyl)-7H-pyrrolo[2,3-c]pyridazin-3-yl]butyl}-N-[(6-methylpyridin-3-yl)methyl]-1H-1,2,3-triazole-4-carboxamide], the IC50 in experiment [1] is less than 100 nM. The same compound returned an EC50 with A549 cells of less than 100 nM.

With `O=C(NCc1ccccn1)c1cn(CCCCc2cc3c(-c4ccc(F)cc4)c(C4CC4)[nH]c3nn2)nn1` [Example 125, 1-{4-[6-cyclopropyl-5-(4-fluorophenyl)-7H-pyrrolo[2,3-c]pyridazin-3-yl]butyl}-N-(pyridin-2-ylmethyl)-1H-1,2,3-triazole-4-carboxamide], the IC50 in experiment [1] is less than 100 nM. In the experiment on A549 cells, this compound came in with an EC50 of 100 to 500 nM.

In the case of `Cc1ccc(CNC(=O)c2cn(CCCCc3cc4cc(C5CC5)[nH]c4nn3)nn2)nc1` [Example 56, 1-(4-{6-cyclopropyl-7H-pyrrolo[2,3-c]pyridazin-3-yl}butyl)-N-[(5-methylpyridin-2-yl)methyl]-1H-1,2,3-triazole-4-carboxamide], in experiment [1], the IC50 fell in the range of 100 to 500 nM. In the experiment with A549 cells, this compound displayed an EC50 of 500 to 5000 nM.

As for `CC(C)(O)c1ccc(CNC(=O)c2cn(CCCCc3cc4c(-c5ccc(OC(F)(F)F)cc5)c(C5CC5)[nH]c4nn3)nn2)cn1` [Example 164, 1-(4-{6-cyclopropyl-5-[4-(trifluoromethoxy)phenyl]-7H-pyrrolo[2,3-c]pyridazin-3-yl}butyl)-N-{[6-(2-hydroxypropan-2-yl)pyridin-3-yl]methyl}-1H-1,2,3-triazole-4-carboxamide], the 50% inhibitory concentration (IC50) in experiment [1] was less than 100 nM. The compound further showed a 50% effective concentration (EC50) with A549 cells of 100 to 500 nM.

For the compound `O=C(NCc1cc(OC(F)(F)F)ccc1F)c1cn(CCCCc2cc3cc(C4CN(C(=O)C5(C(F)(F)F)CC5)C4)[nH]c3nn2)nn1` [Example 225, N-{[2-fluoro-5-(trifluoromethoxy)phenyl]methyl}-1-[4-(6-{1-[1-(trifluoromethyl)cyclopropane-carbonyl]azetidin-3-yl}-7H-pyrrolo[2,3-c]pyridazin-3-yl)butyl]-1H-1,2,3-triazole-4-carboxamide], in experiment [1], the 50% inhibitory concentration (IC50) is less than 100 nM. For the same compound, in the experiment on A549 cells, the half-maximal effective concentration (EC50) was less than 100 nM.

As to `O=C(NCc1cccc(OC(F)(F)F)c1)c1cn(CCCCc2cc3c(C4CC4)c(-c4ccccn4)[nH]c3nn2)nn1` [Example 177, 1-(4-(5-cyclopropyl-6-(pyridin-2-yl)-7H-pyrrolo[2,3-c]pyridazin-3-yl)butyl)-N-(3-(trifluoromethoxy)benzyl)-1H-1,2,3-triazole-4-carboxamide 2,2,2-trifluoroacetate], in experiment [1], the 50% inhibitory concentration (IC50) was less than 100 nM. In addition, the concentration giving a half-maximal response (EC50) in the experiment with A549 cells lay in the range of 500 to 5000 nM.

Consider `COCCOC(=O)N1CC(c2cc3cc(CCCCn4cc(C(=O)NCc5cc(OC(F)(F)F)ccc5F)nn4)nnc3[nH]2)C1` [Example 237, 2-methoxyethyl 3-(3-{4-[4-({[2-fluoro-5-(trifluoromethoxy)phenyl]methyl}carbamoyl)-1H-1,2,3-triazol-1-yl]butyl}-7H-pyrrolo[2,3-c]pyridazin-6-yl)azetidine-1-carboxylate], for which the IC50 in experiment [1] was less than 100 nM. This compound also showed an EC50 in the experiment with A549 cells of 100 to 500 nM.

`CC(C)CNC(=O)c1nnc(CCCCc2cc3cc(Cc4ccccc4)[nH]c3nn2)s1` [Example 10, 5-(4-(6-Benzyl-7H-pyrrolo[2,3-c]pyridazin-3-yl)butyl)-N-isobutyl-1,3,4-thiadiazole-2-carboxamide]: the IC50 in experiment [1] was in the range of 100 to 500 nM. In the experiment with A549 cells, this compound came in with a half-maximal effective concentration (EC50) of 500 to 5000 nM.

`O=C(NCc1ccccn1)c1cn(CCCCc2cc3c(-c4cccc(Cl)c4)c(C4CC4)[nH]c3nn2)nn1` [Example 116, 1-{4-[5-(3-chlorophenyl)-6-cyclopropyl-7H-pyrrolo[2,3-c]pyridazin-3-yl]butyl}-N-(pyridin-2-ylmethyl)-1H-1,2,3-triazole-4-carboxamide]: the IC50 in experiment [1] was less than 100 nM. In addition, the EC50 in the experiment on A549 cells is 500 to 5000 nM.

Regarding `O=C(Nc1nnc(CCCCc2cc3cc(C4CC4)[nH]c3nn2)s1)[C@@H](O)c1ccccc1` [Example 8, (S)—N-(5-(4-(6-Cyclopropyl-7H-pyrrolo[2,3-c]pyridazin-3-yl)butyl)-1,3,4-thiadiazol-2-yl)-2-hydroxy-2-phenylacetamide], the IC50 in experiment [1] was less than 100 nM. This compound returned an EC50 in the experiment with A549 cells of 500 to 5000 nM.

Turning to `Cc1cncc(CNC(=O)c2cn(CCCCc3cc4cc(C5CC5)[nH]c4nn3)nn2)c1` [Example 46, 1-(4-{6-cyclopropyl-7H-pyrrolo[2,3-c]pyridazin-3-yl}butyl)-N-[(5-methylpyridin-3-yl)methyl]-1H-1,2,3-triazole-4-carboxamide], the IC50 in experiment [1] is less than 100 nM. Moreover, the half-maximal effective concentration (EC50) in the experiment on A549 cells was in the range of 500 to 5000 nM.

As for `O=C(NCc1ccc(C(F)(F)F)cn1)c1cn(CCCCc2cc3c(-c4ccoc4)c(C4CC4)[nH]c3nn2)nn1` [Example 187, 1-{4-[6-cyclopropyl-5-(furan-3-yl)-7H-pyrrolo[2,3-c]pyridazin-3-yl]butyl}-N-{[5-(trifluoromethyl)pyridin-2-yl]methyl}-1H-1,2,3-triazole-4-carboxamide], the half-maximal inhibitory concentration (IC50) in experiment [1] is less than 100 nM. The same compound had a concentration giving a half-maximal response (EC50) in the experiment with A549 cells of 100 to 500 nM.

Values taken from patent US20160002248A1, “GLS1 INHIBITORS FOR TREATING DISEASE” (Board of Regents, The University of Texas System, priority 2014, published 2016).
